Test results from patent US20240132484A1, “BROAD SPECTRUM ANTIVIRAL COMPOUNDS TARGETING THE SKI COMPLEX” (priority 2020, published 2024).
Several values for one entry are separate records, joined by “and”; a condition that tells them apart may be missing. Equal values may be shown once. Read-outs that look alike come from different tables or passages of the source.

Assays:
SARS2 = type: cell-based, SARS-CoV-2; conditions: for Percentage Infection Relative to Appropriate DMSO Control: avg background subtraction
cells (nuclei count) = conditions: for Toxicity Data: Average, Mean: average of Exp 1-3 (SMW475, SMW477, SMW478), n 9; for Toxicity Data, Percentage Relative to Appropriate DMSO Control, Mean: Average of Exp 1 and Exp 2, n=4; for Toxicity Data, Percentage Relative to Appropriate DMSO Control: single wells

COc1ccc(CNCCc2ccccc2F)c(OCC(O)CN2CCN(C)CC2)c1 (racemic) [UMB18G]
Percentage Infection Relative to Appropriate DMSO Control (SARS2; Exp 2 (SMW492), 50 uM, single wells): 1.27% and 0.52% and 1.57% and 1.49% | Percentage Infection Relative to Appropriate DMSO Control (SARS2; Exp 3 (SMW480), 1 uM): 54.21% and 61.59% and 57.93% | Percentage Infection Relative to Appropriate DMSO Control (SARS2; Exp 3 (SMW480), 5 uM): 19.54% and 24.35% and 30.13% | Percentage Infection Relative to Appropriate DMSO Control (SARS2; Exp 3 (SMW480), 10 uM): 53.71% and 59.47% and 34.88% | Percentage Infection Relative to Appropriate DMSO Control (SARS2; Exp 3 (SMW480), 25 uM): −0.67% and 2.60% and 2.37% | Percentage Infection Relative to Appropriate DMSO Control (SARS2; Exp 3 (SMW480), 50 uM): −1.69% and −2.08% and −2.66% | Percentage Inhibition Average 1 μM (SARS2; SARS2, 1 μM): 40.42% | Screening data (Relative infection to DMSO controls) Average 1 μM (SARS2; SARS2, 1 μM, 100=DMSO control): 59.58 | Percentage Inhibition Average 5 μM (SARS2; SARS2, 5 μM): 68.79% | Screening data (Relative infection to DMSO controls) Average 5 μM (SARS2; SARS2, 5 μM, 100=DMSO control): 31.21 | Percentage Inhibition Average 10 μM (SARS2; SARS2, 10 μM): 90.05% | Screening data (Relative infection to DMSO controls) Average 10 μM (SARS2; SARS2, 10 μM, 100=DMSO control): 9.95 | Percentage Inhibition Average 25 μM (SARS2; SARS2, 25 μM): 93.14% | Screening data (Relative infection to DMSO controls) Average 25 μM (SARS2; SARS2, 25 μM, 100=DMSO control): 6.86 | Percentage Inhibition Average 50 μM (SARS2; SARS2, 50 μM): 94.65% | Screening data (Relative infection to DMSO controls) Average 50 μM (SARS2; SARS2, 50 μM, 100=DMSO control): 5.35 | Average (relative infection to DMSO over the 5 tested concentrations) (SARS2; SARS2, average over 1 to 50 uM, 100=DMSO control): 22.59 | Toxicity Data: Average, Mean (cells (nuclei count); 1 uM): 125.37% | Relative cell count to DMSO controls, Average 1 μM (cells (nuclei count); 1 μM, toxicity data, 100=DMSO control): 123.37 | Toxicity Data: Average, Mean (cells (nuclei count); 5 uM): 151.57% | Relative cell count to DMSO controls, Average 5 μM (cells (nuclei count); 5 μM, toxicity data, 100=DMSO control): 134.20 | Toxicity Data: Average, Mean (cells (nuclei count); 10 uM): 148.72% | Relative cell count to DMSO controls, Average 10 μM (cells (nuclei count); 10 μM, toxicity data, 100=DMSO control): 139.68 | Toxicity Data: Average, Mean (cells (nuclei count); 25 uM): 110.49% | Relative cell count to DMSO controls, Average 25 μM (cells (nuclei count); 25 μM, toxicity data, 100=DMSO control): 116.94 | Toxicity Data: Average, Mean (cells (nuclei count); 50 uM): 58.67% | Relative cell count to DMSO controls, Average 50 μM (cells (nuclei count); 50 μM, toxicity data, 100=DMSO control): 85.72 | Toxicity Data, Average, Mean (cells (nuclei count); Average of Exp 1-3, n 9, 1 uM): 108.03% | Toxicity Data, Average, Mean (cells (nuclei count); Average of Exp 1-3, n 9, 5 uM): 120.64% | Toxicity Data, Average, Mean (cells (nuclei count); Average of Exp 1-3, n 9, 10 uM): 114.41% | Toxicity Data, Average, Mean (cells (nuclei count); Average of Exp 1-3, n 9, 25 uM): 112.46% | Toxicity Data, Average, Mean (cells (nuclei count); Average of Exp 1-3, n 9, 50 uM): 78.15% | Toxicity Data, Percentage Relative to Appropriate DMSO Control, Mean (cells (nuclei count); 1 uM): 121.38% and 131.60% | Toxicity Data, Percentage Relative to Appropriate DMSO Control, Mean (cells (nuclei count); 5 uM): 129.65% and 137.65% | Toxicity Data, Percentage Relative to Appropriate DMSO Control, Mean (cells (nuclei count); 10 uM): 137.10% and 131.04% | Toxicity Data, Percentage Relative to Appropriate DMSO Control, Mean (cells (nuclei count); 25 uM): 118.22% and 120.31% | Toxicity Data, Percentage Relative to Appropriate DMSO Control, Mean (cells (nuclei count); 50 uM): 93.28% and 100.37% | Toxicity Data, nuclei count relative to DMSO controls (cells (nuclei count); Exp 1 (SMW454), 1 uM): 94.8% and 106.7% and 107.9% | Toxicity Data, nuclei count relative to DMSO controls (cells (nuclei count); Exp 1 (SMW454), 5 uM): 92.6% and 104.0% and 109.1% | Toxicity Data, nuclei count relative to DMSO controls (cells (nuclei count); Exp 1 (SMW454), 10 uM): 94.4% and 107.2% and 106.3% | Toxicity Data, nuclei count relative to DMSO controls (cells (nuclei count); Exp 1 (SMW454), 25 uM): 98.3% and 107.4% and 105.6% | Toxicity Data, nuclei count relative to DMSO controls (cells (nuclei count); Exp 1 (SMW454), 50 uM): 95.5% and 101.6% and 97.7% | Toxicity Data, Percentage Relative to Appropriate DMSO Control (cells (nuclei count); Exp 1 (SMW506), 10 uM): 114% and 126% and 122% | Toxicity Data, Percentage Relative to Appropriate DMSO Control (cells (nuclei count); Exp 1 (SMW506), 25 uM): 111% and 119% and 121% | Toxicity Data, nuclei count relative to DMSO controls (cells (nuclei count); Exp 2 (SMW466), 1 uM): 77.1% and 105.3% and 105.6% | Toxicity Data, nuclei count relative to DMSO controls (cells (nuclei count); Exp 2 (SMW466), 5 uM): 80.8% and 132.0% and 142.0% | Toxicity Data, nuclei count relative to DMSO controls (cells (nuclei count); Exp 2 (SMW466), 10 uM): 78.2% and 135.1% and 144.2% | Toxicity Data, nuclei count relative to DMSO controls (cells (nuclei count); Exp 2 (SMW466), 25 uM): 68.6% and 126.9% and 132.7% | Toxicity Data, Percentage Relative to Appropriate DMSO Control (cells (nuclei count); Exp 2 (SMW507), 5 uM): 144% and 156% and 158% | Toxicity Data, Percentage Relative to Appropriate DMSO Control (cells (nuclei count); Exp 2 (SMW507), 10 uM): 148% and 160% and 140% | Toxicity Data, nuclei count relative to DMSO controls (cells (nuclei count); Exp 3 (SMW480), 1 uM): 110.1% and 127.5% and 137.1% | Toxicity Data, nuclei count relative to DMSO controls (cells (nuclei count); Exp 3 (SMW480), 5 uM): 113.4% and 154.3% and 157.5% | Toxicity Data, nuclei count relative to DMSO controls (cells (nuclei count); Exp 3 (SMW480), 10 uM): 89.6% and 123.8% and 150.9% | Toxicity Data, nuclei count relative to DMSO controls (cells (nuclei count); Exp 3 (SMW480), 50 uM): 60.8% and 69.5% and 85.1% | Relative cell count to DMSO controls, Average (for correlation analysis) (cells (nuclei count); average value over the 5 tested concentrations (1 to 50 uM)): 119.98
